Where two headings read alike, the source gives them in different places. Marks after values point to notes of the source that are not given here.
Key:
[1] = test system: HepG2 cell line
[2] = test system: Bloodstream form culture of T. b. brucei; assay: Cell cycle analysis by FACS (propidium iodide); assay type: cell-based, Trypanosoma brucei brucei; conditions: concentration twice the EC50, 18 h
Experimental: For cell cycle analysis, samples (1.5 × 10^6 cells) were collected, centrifuged (1400g at 4 °C for 5 min), and washed in trypanosome dilution buffer (TDB). The cell pellets were gently suspended in 50 μL of TDB and permeabilized by adding 1 μL of saponin (25 mg/mL) for 3 min. It was then mixed with another 450 μL of TDB. RNase and propidium iodide (PI) were added to the suspension at final concentrations of 10 and 20 μg/mL, respectively, and the samples were incubated at room temperature for 30 min and then stored at 4 °C. The DNA content of PI-stained cells and the percentage of cells in each phase of the cell cycle (10 000 cells per sample) were analyzed with a Becton Dickinson FACSCalibur flow cytometer (BD Biosciences) using BD CellQuest Pro version 4.0.2 software.
Figure S3. Cell Cycle analysis of parasites upon dosage with NVP-BEZ235 derivative.
Bloodstream form culture of T. b. brucei was subjected to different drugs and analyzed by
Fluorescencecactivated cell sorter (FACS) for DNA content stained by propidium iodide (PI).
Cell cultures were incubated during 18 h with various NVPcBEZ235 derivatives using DMSO as
a control treatment. Mean ± SD of three independent experiments are shown.

[3] = test system: bloodstream form of T. brucei; assay: Transferrin uptake (receptor-mediated endocytosis); assay type: cell-based, Trypanosoma brucei; conditions: concentration twice the EC50, 18 h
Source text: Highly efficient and rapid endocytosis is one of the most important cellular processes for this infective parasite to survive and multiply within the bloodstream of the host, and the activity of TbPI3KIII is essential for this process.[25] To gain insight on the possible target(s) of our compounds, we carried out transferrin uptake experiments to measure receptor-mediated endocytosis after drug treatment. […] Compound 16e induced a phenotype defective in endocytosis (Figure 3); however, the PIP3 molecular species identified (42:7-9) was not the same PIP3 molecular species identified in WT cells (44:9-12).
Two million trypanosomes were harvested and washed with TDB-glucose plus 1% BSA, resuspended in 250 μL in the same buffer, and incubated for 10 min at 37 °C prior to the addition of 5 μg of AlexaFluor 488-conjugated human holo-Tf (Invitrogen). Incubations were carried out for 0 (no Tf) or 3 min at 37 °C, after which cells were immediately fixed in 4 °C in 1% PFA diluted in cold PBS for at least 1 h. Parasites were finally washed twice with PBS and analyzed with a Becton Dickinson FACSCalibur flow cytometer (BD Biosciences) using BD CellQuest Pro version 4.0.2 software.

[4] = test system: phosphorylated PIs (PIP, PIP3) in T. brucei cells; assay: Phospholipidomics analysis (ES-MS of lipid extracts); assay type: cell-based, Trypanosoma brucei; conditions: 200 nM, 12 h; negative ion mode scans 950–1300 m/z
Source text: We originally selected 1 to investigate its potential as an trypanocidal agent on the basis of its activity as a PI3K/mTOR inhibitor in mammalian cells and the fact that PI3K activity is essential for the bloodstream form of the T. brucei parasite.[25] In the interest of elucidating the potential mechanism of action against T. brucei cells, we performed a lipidomic analysis to discern if PI kinases are likely targets of these analogues. Lipid extracts of cells grown in the presence of the best compounds at sublethal doses (200 nM) for 12 h were analyzed by ES-MS. […] There were no significant differences in the phosphatidylcholine (PC) and sphingomylein (SM) species between the control and cells grown in the presence of the other compounds (Figure S1). […] Alternatively, as is often the case, changes in the lipid profile could be a reflection in the cells succumbing to (or adapting to) a defect in a major cellular process, such as endo- or exocytosis or cell cycle arrest.
Because these compounds are thought to target PI3K, negative ion mode scans between 950 and 1300 m/z were conducted to focus upon singly and multiply phosphorylated PIs.
Total lipids from mid log phase cells were extracted by the method of Bligh and Dyer.[30] Briefly, mid log phase cells were collected by centrifugation (800g, 10 min), washed with PBS, resuspended in 100 μL of TDB-glucose, transferred to a glass tube containing 375 μL of 1:2 (v/v) CHCl3/MeOH, and vortexed. The sample was agitated vigorously for a further 10–15 min. The sample was made biphasic by the addition of 125 μL of CHCl3 and vortexed, and then 125 μL of H2O was added. The sample was vortexed again and centrifuged at 3000g at rt for 10 min. The lower (organic) phase was transferred into a new glass vial, and the aqueous phase was re-extracted with the fresh lower phase. The resultant lower phase lipid extract was dried under a stream of nitrogen and stored at 4 °C.
Lipid extracts were dissolved in 15 μL of CHCl3/MeOH (1:2) and 15 μL of acetonitrile/isopropanol/water (6:7:2) and analyzed with a triple quadrupole mass spectrometer (Absceix 4000 QTrap) equipped with a nanoelectrospray source. […] The lipid extracts were analyzed in both positive and negative ion modes using a capillary voltage of 1.25 kV. […] Tandem mass spectra (MS/MS) were obtained with collision energies as follows: 35–45 V, PC/SM in positive ion mode, parent-ion scanning of m/z 184; 35–55 V, PI in negative ion mode, parent-ion scanning of m/z 241; 35–65 V, PE in negative ion mode, parent-ion scanning of m/z 196; 20–35 V, PS in negative ion mode, neutral loss scanning of m/z 87; and 40–90 V, for all glycerophospholipids (including PA, PG, and cardiolipin) detected by precursor scanning for m/z 153 in negative ion mode. […]

[5] = Table 1, Selectivity = TC50/EC50 (HepG2 / T. brucei)
[6] = Table 2, Selectivity = TC50/EC50

## Cn1c(=O)n(-c2ccc(C(C)(C)C#N)cc2)c2c3cc(-c4cccnc4)ccc3ncc21 [Compound 4b, 2-Methyl-2-(4-(3-methyl-2-oxo-8-(pyridin-3-yl)-2,3-dihydro-1H-imidazo[4,5-c]quinolin-1-yl)phenyl)propanenitrile]
[1]; human, 48 h
  HepG2 cytotoxicity TC50: 0.575 µM

## Cn1c(=O)n(-c2ccc(C(C)(C)C#N)cc2)c2c3cc(-c4ccncc4)ccc3ncc21 [Compound 4a]
[1]; human, 48 h
  HepG2 TC50: 3.43 µM

## Cn1c(=O)n(-c2ccc(C(C)(C)C#N)cc2)c2c3ccccc3ncc21 [Compound 9, 2-Methyl-2-(4-(3-methyl-2-oxo-2,3-dihydro-1H-imidazo[4,5-c]quinolin-1-yl)phenyl)propanenitrile]
[1]; [5]
  Selectivity: >80
[1]; human, 48 h
  HepG2 TC50: >50 µM

## Cn1c(=O)n(-c2ccc(C(F)(F)F)cc2)c2c3cc(-c4cnc5ccccc5c4)ccc3ncc21 [Compound 16a, 3-Methyl-8-(quinolin-3-yl)-1-(4-(trifluoromethyl)phenyl)-1H-imidazo[4,5-c]quinolin-2(3H)-one]
[1]; [6]
  Selectivity: >240

## Cn1c(=O)n(-c2ccc(C(C)(C)C#N)cc2)c2c3cc(N)ccc3ncc21 [Compound 6, 2-(4-(8-Amino-3-methyl-2-oxo-2,3-dihydro-1H-imidazo[4,5-c]quinolin-1-yl)phenyl)-2-methylpropanenitrile]
[1]; [5]
  Selectivity: >4

## Cn1c(=O)n(-c2ccccc2)c2c3cc(-c4cnc5ccccc5c4)ccc3ncc21 [Compound 16c, 3-Methyl-1-phenyl-8-(quinolin-3-yl)-1H-imidazo[4,5-c]quinolin-2(3H)-one]
[1]; [6]
  Selectivity: >1000

## CN1CCN(c2ccc3ncc4c(c3c2)n(-c2ccc(C(C)(C)C#N)cc2)c(=O)n4C)CC1 [Compound 5a, 2-Methyl-2-(4-(3-methyl-8-(4-methylpiperazin-1-yl)-2-oxo-2,3-dihydro-1H-imidazo[4,5-c]quinolin-1-yl)phenyl)propanenitrile]
[1]; [5]
  Selectivity: >5

## Cc1ccc2ncc3c(c2c1)n(-c1ccc(C(C)(C)C#N)cc1)c(=O)n3C [Compound 8, 2-(4-(3,8-Dimethyl-2-oxo-2,3-dihydro-1H-imidazo[4,5-c]quinolin-1-yl)phenyl)-2-methylpropanenitrile]
[1]; [5]
  Selectivity: >10

## Cn1c(=O)n(-c2ccc(N3CCOCC3)cc2)c2c3cc(-c4ccncc4)ccc3ncc21 [Compound 16i, 3-Methyl-1-(4-morpholinophenyl)-8-(pyridin-4-yl)-1H-imidazo[4,5-c]quinolin-2(3H)-one]
[1]; [6]
  Selectivity: >24

## Cn1c(=O)n(-c2ccc(C(C)(C)C#N)cc2)c2c3cc(-c4ccc(C(F)(F)F)nc4)ccc3ncc21 [Compound 4d, 2-Methyl-2-(4-(3-methyl-2-oxo-8-(6-(trifluoromethyl)pyridin-3-yl)-2,3-dihydro-1H-imidazo[4,5-c]quinolin-1-yl)phenyl)propanenitrile]
[1]; [5]
  Selectivity: >470

## Cn1c(=O)n(-c2ccc(C(C)(C)C#N)cc2)c2c3cc(-c4ccccc4)ccc3ncc21 [Compound 4c, 2-Methyl-2-(4-(3-methyl-2-oxo-8-phenyl-2,3-dihydro-1H-imidazo[4,5-c]quinolin-1-yl)phenyl)propanenitrile]
[1]; human, 48 h
  HepG2 TC50: 1.82^d μM

## Cn1c(=O)n(-c2ccc(C(C)(C)C#N)cc2)c2c3cc(-c4cc5ccccc5s4)ccc3ncc21 [Compound 4f, 2-(4-(8-(Benzo[b]thiophen-2-yl)-3-methyl-2-oxo-2,3-dihydro-1H-imidazo[4,5-c]quinolin-1-yl)phenyl)-2-methylpropanenitrile]
[1]; [5]
  Selectivity: >460
[1]; human, 48 h
  HepG2 toxicity (in words): no HepG2 toxicity observed

## CC(=O)Nc1ccc2ncc3c(c2c1)n(-c1ccc(C(C)(C)C#N)cc1)c(=O)n3C [Compound 7, N-(1-(4-(2-Cyanopropan-2-yl)phenyl)-3-methyl-2-oxo-2,3-dihydro-1H-imidazo[4,5-c]quinolin-8-yl)acetamide]
[1]; [5]
  Selectivity: >5

## Cn1c(=O)n(-c2ccc(C(C)(C)C#N)cc2)c2c3cc(C#Cc4cccnc4)ccc3ncc21 [Compound 10, reference compound]
[1]; human, 48 h
  HepG2 TC50: 0.14^d μM

## CN(C)c1ccc(-n2c(=O)n(C)c3cnc4ccc(-c5ccncc5)cc4c32)cc1 [Compound 16h, 1-(4-(Dimethylamino)phenyl)-3-methyl-8-(pyridin-4-yl)-1H-imidazo[4,5-c]quinolin-2(3H)-one]
[1]; human, 48 h
  HepG2 TC50: 2.34 µM

## Cn1c(=O)n(-c2ccc(C(C)(C)C#N)cc2)c2c3cc(N4CCOCC4)ccc3ncc21 [Compound 5b, 2-Methyl-2-(4-(3-methyl-8-morpholino-2-oxo-2,3-dihydro-1H-imidazo[4,5-c]quinolin-1-yl)phenyl)propanenitrile]
[1]; [5]
  Selectivity: >24

## Cn1c(=O)n(-c2ccc(C#N)cc2)c2c3cc(-c4cnc5ccccc5c4)ccc3ncc21 [Compound 16b, 4-(3-Methyl-2-oxo-8-(quinolin-3-yl)-2,3-dihydro-1H-imidazo[4,5-c]quinolin-1-yl)benzonitrile]
[1]; [6]
  Selectivity: >540

## Cn1cc(-c2ccc3ncc4c(c3c2)n(-c2ccc(C(C)(C)C#N)cc2)c(=O)n4C)cn1 [Compound 4e, 2-Methyl-2-(4-(3-methyl-8-(1-methyl-1H-pyrazol-4-yl)-2-oxo-2,3-dihydro-1H-imidazo[4,5-c]quinolin-1-yl)phenyl)propanenitrile]
[2]
  cell cycle progression: reducing the proportion of cells in G1 and increasing multinucleated cells
[3]
  transferrin uptake / endocytosis: did not significantly reduce transferrin endocytosis
[4]
  phosphorylated PI (PIP) levels vs control cells: significant (albeit incomplete) reduction in PIP levels

## Cn1c(=O)n(-c2ccc(CC#N)cc2)c2c3cc(-c4ccncc4)ccc3ncc21 [Compound 16d, 2-(4-(3-Methyl-2-oxo-8-(pyridin-4-yl)-2,3-dihydro-1H-imidazo[4,5-c]quinolin-1-yl)phenyl)acetonitrile]
[1]; [6]
  Selectivity: >560

Source: article PMC4099174 (Journal of Medicinal Chemistry, 2014)
